# Where two headings read alike, the source gives them in different places.
# Experiments:
# Assay type in all cases: cell-based
# [1] = system: Acinetobacter baumannii (ATCC 19606) biofilm; assay: Biofilm inhibition, Mueller-Hinton broth, crystal violet; details: A. baumannii ATCC 19606; for inhibition at 100 µM: Acinetobacter baumannii, ATCC19606, read-out: % Biofilm Inhibition at 100 μM
# Procedure: (§1) Biofilm Inhibition Protocol for A. baumannii (ATCC 19606): In a 96-well plate, ten two-fold serial dilutions of each compound tested were made from the highest concentration tested (100 μM) in a final volume of 100 μL in Mueller-Hinton broth (one column served as a blank). Each well was inoculated with ˜7×10^6 colony forming units per milliliter (corresponding to an OD600 of 0.01 prepared directly from an overnight culture). A lid was placed on the 96-well plate which was wrapped in suran wrap, placed in a humidifying chamber and incubated under static conditions at 37° C. for 24 hours. Following incubation, the media and planktonic bacteria were then removed from 96-well plates and the wells were then washed with water. The bacterial biofilms within the microtiter wells were stained with 200 μL of an aqueous 0.1% crystal violet solution that was allowed to stand for 10-20 minutes. The crystal violet stain was then removed, the wells were rinsed with water and dried. The crystal violet stain that remained on the inside of the wells (i.e., stained bacterial biofilm) on the inside of the wells was solubilized by the addition of 200 μL ethanol and absorbance was read at OD540 using a spectrophotometer. NOTE: The concentration range tested for each compound was 0.2-100 μM. Single data points for all compounds and DMSO controls were tested in two replicate rows in 96-well plates and corresponding absorbance readings were averaged for the quantification of planktonic growth and biofilm formation. Reported percent biofilm inhibition was determined by the comparison of compound treated wells (the average of the two replicate wells) versus vehicle control wells without compound following background subtraction (i.e., an empty, untreated well) and reported from 2 to 4 independent overnight cultures. DMSO was serially diluted at the same concentration as test compounds with a top concentration of 1% v/v.
# (§2) The bromophenazines were also evaluated against the Gram-negative bacterium Acinetobacter baumannii in order to identify biofilm modulating small molecules against this emerging pathogen. Acinetobacter baumannii is notorious for its ability to persist as bacterial biofilms on hospital surfaces, giving rise to many multidrug-resistant nosocomial infections. Clinical isolates of A. baumannii have been identified that are resistant to every class of antibiotic clinically used. The bromophenazines were evaluated against Acinetobacter baumannii ATCC 19606 in biofilm inhibition assays. Bromophenazines were allowed to incubate in 96-well plates with Acinetobacter baumannii (˜7×10^6 CFUmL^−1 by adjusting an overnight culture to an OD600˜0.01) for 24 hours at 37° C. using Mueller-Hinton broth followed by spectrophometer readings of each plate to evaluate planktonic growth (OD600) and biofilm formation (OD540 after crystal violet stain of biofilms inside microtiter wells). […] This biofilm inhibition with activation of planktonic growth activity was dose-dependent with bromophenazine 17a (see FIG. 20).
# [2] = system: Staphylococcus aureus (ATCC 25923) established biofilm; assay: Biofilm dispersion, crystal violet staining; details: for EC50: Staphylococcus aureus, read-out: Biofilm Dispersion EC50
# Procedure: Biofilm Dispersion Protocol for Staphylococcus aureus (ATCC 25923): A single colony grown on tryptic soy agar (TSA) solid medium is amplified in 2 milliliters of tryptic soy broth (TSB) medium with 0.5% glucose to an OD600=0.8-1.0. The bacterial suspension was then diluted to 1×10^6 CFU/mL in TSB with 0.5% glucose. Sterile 96-well flat-bottomed polystyrene plates (0.1% gelatin coated overnight) were then filled with 200 μL of this bacterial suspension. The plates were then covered and incubated for 24 hours at 37° C. Following this, the contents of the wells were discarded and washed with 200 μL PBS (one time). Then serial, two-fold dilutions of bromophenazine small molecules in 200 μL PBS were delivered into each well. The plates were then covered and incubated for another 24 hours at room temperature. After this incubation time, the plates were gently washed with water three times (wells were rinsed by submerging the entire plates in a tub of cold, running tap water). Remaining biofilms were then fixed with 200 μL of methanol for 15 minutes. The plates were emptied and left to air dry. Upon drying, 100 μL of 1% crystal violet was added to each well for 10 minutes, then washed three times with water and again air dried. For quantitative assessment of biofilm formation 100 μL per well of bleaching solution (methanol:glacial acetic acid:water (v/v/v)=4:1:5 with rotary shaking for 1 hour) was used. Remaining biofilm was measured using a spectrophotometer (absorbance readings at 540 nm).
# Further microdilution MIC assays were carried out for 11, 21-26, and 4a-29a against Staphylococcus aureus (ATCC 25923) in Luria Broth media (at ˜10^5 CFUmL^−1) to establish the level of growth inhibition for each compound (see FIGS. 5-13). […] Differentiation of a “biofilm inhibitor” from an antibacterial agent was carried out according to the ratio of MIC/IC50 of biofilm inhibition (based on crystal violet staining dose-response). […] Following the biofilm inhibition screen, bromophenazines 12a, 14a, 18a and 20a were evaluated in three independent biofilm inhibition experiments against Staphylococcus aureus to obtain replicate data. […] In addition to inhibiting biofilm formation, small molecules that are able to disperse or clear preexisting bacterial biofilms would be highly valuable. Six of the bromophenazine analogues (11, 4a, 8a, 23a, 27a, 28a; see Table 2 and FIGS. 18-19) were evaluated in biofilm dispersion assays by allowing Staphylococcus aureus biofilms to establish in 96-well plates for 24 hours at 37° C. After this incubation time, the media and planktonic cells were removed followed by a wash of the 96-well plates with water. Phosphate buffered saline (PBS) was then added to the 96-well plate followed by the addition of bromophenazine compounds (with 2-fold serial dilutions of each compound tested). The resulting plates were then allowed to incubate at room temperature for 24 hours and stained with crystal violet to quantify biofilm dispersion.
# [3] = system: Acinetobacter baumannii (ATCC 19606); assay: Planktonic growth (OD600) in biofilm inhibition assay; details: for inhibition of growth at 100 µM: Acinetobacter baumannii, ATCC19606, 24 h, A. baumannii ATCC 19606, * = no growth inhibition at 200 μM, read-out: % Growth Inhibition at 100 μM
# Procedure: as §1, with “Each” for “Biofilm Inhibition Protocol for A. baumannii (ATCC 19606): In a 96-well plate, ten two-fold serial dilutions of each compound tested were made from the highest concentration tested (100 μM) in a final volume of 100 μL in Mueller-Hinton broth (one column served as a blank). Each”, “NOTE: The concentration range tested for each compound was 0.2-100 μM.” left out
# as §2
# [4] = ATCC25923, S. aureus ATCC 25923, 24 h in PBS at room temperature
Compound,Phenotype [1],inhibition at 100 µM [1] [%],Biofilm Dispersal Agent? ([2]; S. aureus ATCC 25923),"EC50 [2, 4] [nM]",inhibition of growth at 100 µM ([3]; 100 μM) [%],"increase in planktonic growth ([3]; 100 μM, OD600) [%]",planktonic growth inhibition at 200 μM ([3]; 200 μM),"EC50 ([2]; ATCC25923, 24 h) [nM]"
CCC(=O)Oc1c(Br)cc(Br)c2nc3ccccc3nc12 [Compound 4a],antibacterial,99 ± 1,Yes,2600,82 ± 1,,,
"O=C(Oc1c(Br)cc(Br)c2nc3ccccc3nc12)c1ccccc1 [Compound 23, 2,4-Dibromophenazin-1-yl benzoate]",,51 ± 6,,,-13 ± 7,~15,did not inhibit planktonic growth,
Cc1ccc(C(=O)Oc2c(Br)cc(Br)c3nc4ccccc4nc23)cc1 [Compound 18a],inactive,1 ± 5,,,-6 ± 6,,,
O=C(Oc1c(Br)cc(Br)c2nc3ccccc3nc12)c1cccc([N+](=O)[O-])c1 [Compound 15a],,25 ± 6,,,3 ± 4,,,
"CC(=O)Oc1c(Br)cc(Br)c2nc3ccccc3nc12 [Compound 21, 2,4-Dibromophenazin-1-yl acetate]",antibacterial,98 ± 1,,,83 ± 2,,,
O=C(Oc1c(Br)cc(Br)c2nc3ccccc3nc12)c1ccc(Cl)cc1 [Compound 14a],,25 ± 3,,,2 ± 3,,,
O=C(OCCc1ccccc1)Oc1c(Br)cc(Br)c2nc3ccccc3nc12 [Compound 8a],antibacterial,97 ± 2,No,> 100000,76 ± 10,,,
O=C(Oc1c(Br)cc(Br)c2nc3ccccc3nc12)c1ccco1 [Compound 23a],antibacterial,86 ± 12,Yes,1400,80 ± 1,,,
O=C(CCCC(=O)Oc1c(Br)cc(Br)c2nc3ccccc3nc12)Oc1c(Br)cc(Br)c2nc3ccccc3nc12 [Compound 5a],,59 ± 11,,,-1 ± 6,,,
O=C(Oc1c(Br)cc(Br)c2nc3ccccc3nc12)c1ccc(Br)cc1 [Compound 12a],,34 ± 4,,,3 ± 3,,,
O=C(OCC(Cl)(Cl)Cl)Oc1c(Br)cc(Br)c2nc3ccccc3nc12 [Compound 27a],antibacterial,99 ± 1,No,> 100000,68 ± 4,,,
"Oc1c(Br)cc(Br)c2nc3ccccc3nc12 [Compound 11, 2,4-Dibromophenazin-1-ol]",antibacterial,98 ± 1,Yes,,86 ± 3,,,29300
COC(=O)Oc1c(Br)cc(Br)c2nc3ccccc3nc12 [Compound 28a],antibacterial,99 ± 1,Yes,2900,92 ± 1,,,
